# Values quoted from earlier work as cited in patent US10925925B2, “Therapy of atherosclerosis, primary biliary cirrhosis and NRLP3 inflammasome-associated disease by HTCP inhibitors” (MYR GmbH, priority 2017, dated 2021).
# Like-named read-outs stand apart in the source and are kept apart here.
# Columns and labels:
# patients with PBC [1] = conditions: month 12, placebo arm 10%
# patients with PBC [2] = conditions: PBC patients treated with UDCA
SMILES,patients achieving the primary endpoint (predominantly reduction in ALP) (patients with PBC [1]; OCA 10 mg arm) [%],patients achieving the primary endpoint (predominantly reduction in ALP) (patients with PBC [1]; OCA titration arm) [%],patients who do not achieve adequate biochemical response (patients with PBC [2])
"CC[C@H]1[C@@H](O)[C@@H]2[C@H](CC[C@]3(C)[C@@H]([C@H](C)CCC(=O)O)CC[C@@H]23)[C@@]2(C)CC[C@@H](O)C[C@@H]12 [OCA, obeticholic acide]",47,46,
"C[C@H](CCC(=O)O)[C@H]1CC[C@H]2[C@@H]3[C@@H](O)C[C@@H]4C[C@H](O)CC[C@]4(C)[C@H]3CC[C@]12C [UDCA, ursodeoxicholic acid]",,,about 40%
